{"source": "paper PMC12514245", "about": "“Impaired migration and lung invasion of human melanoma by a novel small molecule targeting the transmembrane domain of death receptor p75^NTR” (EMBO Molecular Medicine, 2025)", "key": {"p75^NTR TMD V254A": {"target": "T1, p75^NTR TMD V254A (Homo sapiens, UniProt P08138, V254A)", "T1 construct": "Comparison of wild-type (WT) p75^NTR TMD and I252A, P253G and V254A mutants in the AraTM assay; expressed in transfected cells; host or cells: E. coli AS19 (LPS-negative)", "T1 sequence (P08138 250-275 V254A)": "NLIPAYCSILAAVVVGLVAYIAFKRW", "test": "AraTM assay, V254A mutant p75NTR TMD;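 on GFP/OD630, Mean: normalised to the no-drug GFP/OD630 signal set at 100%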;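 on GFP/OD630, individual replicates: normalised to the no-drug GFP/OD630 signal set at 100%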", "assay_type": "cell-based", "settings": "for GFP/OD630, Mean / GFP/OD630, individual replicates: V254A"}, "p75^NTR TMD": {"target": "T2, p75^NTR TMD (Homo sapiens, UniProt P08138)", "T2 sequence (P08138 250-275 limits assumed)": "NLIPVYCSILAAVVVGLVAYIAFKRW", "test": "AraTM assay, wild-type p75NTR TMD (GFP/OD630)", "assay_type": "cell-based"}, "A875 NT cells": {"tested_on": "A875 NT cells", "test": "Wound healing cell motility assay, A875 NT", "assay_type": "cell-based, human", "settings": "A875 NT; for Fold (wound area): 0.75uM; for Wound area (Fold): 1uM", "procedure": "For wound healing assay, cells were grown until confluency and subjected to a wound across the cell mono-layer. Cells were then incubated with serum-free media either with DMSO or a small molecule (with or without 5 µM Q_VD_poH) and imaged at specific time-points. Cell migration is reflected as fold change in wound area over time."}, "[1]": {"settings": "wt, compound 10 μM, Figure 5C-E"}, "[2]": {"settings": "wt, compound 20 μM, Figure 5C-E"}, "[3]": {"settings": "wt, compound 30 μM, Figure 5C-E"}, "[4]": {"settings": "wt, compound 40 μM, Figure 5C-E"}}, "note": "“And” between values parts separate entries of the source, which are not always exact repeats. Identical values can stand only once. “Also recorded” adds a separate entry of the source."}
{"smiles": "Cc1cccc(-c2cncc(Nc3ccc(Br)c(Cl)c3Cl)n2)c1C", "note": "[Np75-4A22]", "values": [{"measurement": "effect of Val254 mutation on compound activity in AraTM assay", "setting": "p75^NTR TMD V254A", "result": "unaffected"}, {"measurement": "GFP/OD630, Mean", "setting": "p75^NTR TMD V254A; compound 5 μM", "result": 0.83}, {"measurement": "GFP/OD630, individual replicates", "setting": "p75^NTR TMD V254A; compound 5 μM", "result": "0.98 and 0.74 and 0.77"}, {"measurement": "GFP/OD630, Mean", "setting": "p75^NTR TMD V254A; compound 10 μM", "result": 0.64}, {"measurement": "GFP/OD630, individual replicates", "setting": "p75^NTR TMD V254A; compound 10 μM", "result": "0.63 (2×) and 0.65"}, {"measurement": "GFP/OD630, Mean", "setting": "p75^NTR TMD V254A; compound 20 μM", "result": 0.61}, {"measurement": "GFP/OD630, individual replicates", "setting": "p75^NTR TMD V254A; compound 20 μM", "result": "0.46 and 0.62 and 0.74"}, {"measurement": "GFP/OD630, Mean", "setting": "p75^NTR TMD V254A; compound 30 μM", "result": 0.47}, {"measurement": "GFP/OD630, individual replicates", "setting": "p75^NTR TMD V254A; compound 30 μM", "result": "0.41 and 0.51 and 0.50"}, {"measurement": "GFP/OD630, Mean", "setting": "p75^NTR TMD V254A; compound 40 μM", "result": 0.54}, {"measurement": "GFP/OD630, individual replicates", "setting": "p75^NTR TMD V254A; compound 40 μM", "result": "0.57 and 0.51 and 0.53"}, {"measurement": "IC50 in the AraTM assay, compared with Div17E5", "setting": "p75^NTR TMD", "result": "improved IC50 compared to Div17E5"}, {"measurement": "GFP/OD630, Mean", "setting": "p75^NTR TMD; compound 2 μM, Figure 5B", "result": 0.98}, {"measurement": "GFP/OD630, individual replicates", "setting": "p75^NTR TMD; compound 2 μM, Figure 5B", "result": "0.97 and 0.96 and 1.01"}, {"measurement": "GFP/OD630, Mean", "setting": "p75^NTR TMD; compound 4 μM, Figure 5B", "result": 0.58}, {"measurement": "GFP/OD630, individual replicates", "setting": "p75^NTR TMD; compound 4 μM, Figure 5B", "result": "0.59 and 0.58 and 0.56"}, {"measurement": "GFP/OD630, Mean", "setting": "p75^NTR TMD; compound 6 μM, Figure 5B", "result": 0.46}, {"measurement": "GFP/OD630, individual replicates", "setting": "p75^NTR TMD; compound 6 μM, Figure 5B", "result": "0.46 and 0.49 and 0.42"}, {"measurement": "GFP/OD630, Mean", "setting": "p75^NTR TMD; compound 8 μM, Figure 5B", "result": 0.41}, {"measurement": "GFP/OD630, individual replicates", "setting": "p75^NTR TMD; compound 8 μM, Figure 5B", "result": "0.41 and 0.43 and 0.37"}, {"measurement": "GFP/OD630, Mean", "setting": "p75^NTR TMD; compound 10 μM, Figure 5B", "result": 0.39}, {"measurement": "GFP/OD630, individual replicates", "setting": "p75^NTR TMD; compound 10 μM, Figure 5B", "result": "0.36 and 0.38 and 0.43"}, {"measurement": "activity in the AraTM assay", "setting": "p75^NTR TMD; structure-activity comparison", "result": "better performance at low micromolar concentrations; also recorded: best compounds; also recorded: best compound in the 4A series"}, {"measurement": "GFP/OD630, Mean", "setting": "p75^NTR TMD; wt, compound 5 μM, Figure 5C-E", "result": 0.78}, {"measurement": "GFP/OD630, individual replicates", "setting": "p75^NTR TMD; wt, compound 5 μM, Figure 5C-E", "result": "0.78 and 0.81 and 0.74"}, {"measurement": "GFP/OD630, Mean", "setting": "p75^NTR TMD; [1]", "result": 0.57}, {"measurement": "GFP/OD630, individual replicates", "setting": "p75^NTR TMD; [1]", "result": "0.53 and 0.48 and 0.68"}, {"measurement": "GFP/OD630, Mean", "setting": "p75^NTR TMD; [2]", "result": 0.49}, {"measurement": "GFP/OD630, individual replicates", "setting": "p75^NTR TMD; [2]", "result": "0.48 and 0.44 and 0.56"}, {"measurement": "GFP/OD630, Mean", "setting": "p75^NTR TMD; [3]", "result": 0.34}, {"measurement": "GFP/OD630, individual replicates", "setting": "p75^NTR TMD; [3]", "result": "0.46 and 0.29 and 0.27"}, {"measurement": "GFP/OD630, Mean", "setting": "p75^NTR TMD; [4]", "result": 0.32}, {"measurement": "GFP/OD630, individual replicates", "setting": "p75^NTR TMD; [4]", "result": "0.31 and 0.34 and 0.30"}, {"measurement": "Fold (wound area)", "setting": "A875 NT cells; 0 h, Average", "result": 1.000, "unit": "Fold"}, {"measurement": "Fold (wound area)", "setting": "A875 NT cells; 0 h, n1", "result": 1.000, "unit": "Fold"}, {"measurement": "Fold (wound area)", "setting": "A875 NT cells; 0 h, n2", "result": 1.000, "unit": "Fold"}, {"measurement": "Fold (wound area)", "setting": "A875 NT cells; 0 h, n3", "result": 1.000, "unit": "Fold"}, {"measurement": "Fold (wound area)", "setting": "A875 NT cells; 3 h, Average", "result": 0.916, "unit": "Fold"}, {"measurement": "Fold (wound area)", "setting": "A875 NT cells; 3 h, n1", "result": 0.908, "unit": "Fold"}, {"measurement": "Fold (wound area)", "setting": "A875 NT cells; 3 h, n2", "result": 0.920, "unit": "Fold"}, {"measurement": "Fold (wound area)", "setting": "A875 NT cells; 3 h, n3", "result": 0.920, "unit": "Fold"}, {"measurement": "Fold (wound area)", "setting": "A875 NT cells; 6 h, Average", "result": 0.871, "unit": "Fold"}, {"measurement": "Fold (wound area)", "setting": "A875 NT cells; 6 h, n1", "result": 0.867, "unit": "Fold"}, {"measurement": "Fold (wound area)", "setting": "A875 NT cells; 6 h, n2", "result": 0.870, "unit": "Fold"}, {"measurement": "Fold (wound area)", "setting": "A875 NT cells; 6 h, n3", "result": 0.875, "unit": "Fold"}, {"measurement": "Fold (wound area)", "setting": "A875 NT cells; 9 h, Average", "result": 0.851, "unit": "Fold"}, {"measurement": "Fold (wound area)", "setting": "A875 NT cells; 9 h, n1", "result": 0.821, "unit": "Fold"}, {"measurement": "Fold (wound area)", "setting": "A875 NT cells; 9 h, n2", "result": 0.862, "unit": "Fold"}, {"measurement": "Fold (wound area)", "setting": "A875 NT cells; 9 h, n3", "result": 0.870, "unit": "Fold"}, {"measurement": "Fold (wound area)", "setting": "A875 NT cells; 12 h, Average", "result": 0.799, "unit": "Fold"}, {"measurement": "Fold (wound area)", "setting": "A875 NT cells; 12 h, n1", "result": 0.783, "unit": "Fold"}, {"measurement": "Fold (wound area)", "setting": "A875 NT cells; 12 h, n2", "result": 0.824, "unit": "Fold"}, {"measurement": "Fold (wound area)", "setting": "A875 NT cells; 12 h, n3", "result": 0.790, "unit": "Fold"}, {"measurement": "Fold (wound area)", "setting": "A875 NT cells; 15 h, Average", "result": 0.781, "unit": "Fold"}, {"measurement": "Fold (wound area)", "setting": "A875 NT cells; 15 h, n1", "result": 0.755, "unit": "Fold"}, {"measurement": "Fold (wound area)", "setting": "A875 NT cells; 15 h, n2", "result": 0.799, "unit": "Fold"}, {"measurement": "Fold (wound area)", "setting": "A875 NT cells; 15 h, n3", "result": 0.789, "unit": "Fold"}, {"measurement": "Fold (wound area)", "setting": "A875 NT cells; 18 h, Average", "result": 0.759, "unit": "Fold"}, {"measurement": "Fold (wound area)", "setting": "A875 NT cells; 18 h, n1", "result": 0.732, "unit": "Fold"}, {"measurement": "Fold (wound area)", "setting": "A875 NT cells; 18 h, n2", "result": 0.791, "unit": "Fold"}, {"measurement": "Fold (wound area)", "setting": "A875 NT cells; 18 h, n3", "result": 0.755, "unit": "Fold"}, {"measurement": "Fold (wound area)", "setting": "A875 NT cells; 21 h, Average", "result": 0.739, "unit": "Fold"}, {"measurement": "Fold (wound area)", "setting": "A875 NT cells; 21 h, n1", "result": 0.694, "unit": "Fold"}, {"measurement": "Fold (wound area)", "setting": "A875 NT cells; 21 h, n2", "result": 0.751, "unit": "Fold"}, {"measurement": "Fold (wound area)", "setting": "A875 NT cells; 21 h, n3", "result": 0.773, "unit": "Fold"}, {"measurement": "Fold (wound area)", "setting": "A875 NT cells; 24 h, Average", "result": 0.707, "unit": "Fold"}, {"measurement": "Fold (wound area)", "setting": "A875 NT cells; 24 h, n1", "result": 0.674, "unit": "Fold"}, {"measurement": "Fold (wound area)", "setting": "A875 NT cells; 24 h, n2", "result": 0.730, "unit": "Fold"}, {"measurement": "Fold (wound area)", "setting": "A875 NT cells; 24 h, n3", "result": 0.715, "unit": "Fold"}, {"measurement": "Wound area (Fold)", "setting": "A875 NT cells; 0 h, Mean", "result": 1.000, "unit": "Fold"}, {"measurement": "Wound area (Fold)", "setting": "A875 NT cells; 0 h, n1", "result": 0.9625, "unit": "Fold"}]}
